Data on 2 compounds can be found in US11298388B2, “Psychoactive alkaloid extraction and composition with controlled dephosphorylation” (PSILO SCIENTIFIC LTD, priority 2020, dated 2022).

Where two headings read alike, the source gives them in different places.

For series [1] the following is noted: cited from earlier work.
A short description of series [2]: Oxidation (decay) of psilocin when exposed to air, own data.
Series [3] can be described thus: Isoelectric point / maximum stability pH. In kind it is physicochemical. As for the experimental part:
The pH of the partially concentrated extract of Example 1, which was an aqueous extract, was adjusted to pH 4.0 (+/−0.5) by adding 2 M phosphoric acid and centrifuged for 15 minutes at 3000 g to remove any solid precipitate. The pH of 4 corresponds to the isoelectric point of psilocybin, and psilocin's polarity is such that it is partitioned onto the resin, thus allowing effective binding of the psychoactive alkaloids psilocybin and psilocin to the macroporous resin. Norbaeocystin and baeocystin are phosphorylated and behave in the same way as psilocybin. The supernatant obtained was loaded onto a column of Amberlite® XAD4, a non-ionic macroporous resin (50.34 g of dry resin) at a flow rate of 2 bed volumes per hour, to allow components in the supernatant to be adsorbed onto the macroporous resin. After all 2.5 L of the extract was loaded onto the column of macroporous resin, the column was washed in a single pass with 5 bed volumes of reverse osmosis water at room temperature. This was followed by elution with 5 bed volumes of 5% ethanol (by weight), again at room temperature. Finally, the column was washed in a single pass with 5 bed volumes of 100% ethanol. The elution was performed at room temperature. Each of these three fractions was collected separately. The particular order for the washing steps and the elution was selected to be in the order of the polarity of the solvents. […]

Turning to `CN(C)CCc1c[nH]c2cccc(O)c12` [Psilocin, psilocin], the solubility entry is “not soluble” in series [1] (in acetone); “not soluble” in series [1] (in ethanol); “not soluble” in series [1] (in isopropanol); “soluble” in series [1] (in methanol); “soluble” in series [1] (in water). Besides, the “decay (oxidation of psilocin)” value is 40-60% in series [2] (at 20 hours when shielded from light); 25% in series [2] (moist and/or high light environment, after 5 hours); “about 10%” in series [2] (moist and/or high light environment, within 30 minutes). Also, the “maximum stability pH” value in series [3] is recorded as 4.
Consider `CN(C)CCc1c[nH]c2cccc(OP(=O)(O)O)c12` [Psilocybin, psilocybin], for which the solubility result in series [1] (in acetone) is recorded as “not soluble”; in series [1] (in ethanol), “not soluble”; in series [1] (in isopropanol) it was “not soluble”; in series [1] (in methanol) it was “soluble”; in series [1] (in water) it was “soluble”.
